As usually defined, the Km is the concentration of substrate that gives half-maximal velocity.

Experimental findings from PMC10331595 (Redox Biology, 2023) are described below.

This assay has as its system NK-LAAO (native Naja kaouthia L-amino acid oxidase). It counts as biochemical. Particulars: 100 mM Tris-HCl pH 8.5, 25 °C.

Where two headings read alike, the source gives them in different places.

On to `N=C(N)NCCC[C@H](N)C(=O)O` [L-Arg], for which the Km (0.125-4 mM substrate, 2 min) is 3100 ± 448 µM.
For the compound `N[C@@H](CCC(=O)O)C(=O)O` [L-Glu], under “0.625-20 mM substrate, 240 min”, the Km was found to be 3560 ± 353 µM.
`CC(C)C[C@H](N)C(=O)O` [L-Leu]: the Km (0.0625-4 mM substrate, 4 min) is 637 ± 34.5 µM.
As for `CSCC[C@H](N)C(=O)O` [L-Met], the Michaelis constant (Km) (0.03125-4 mM substrate, 2 min) turned out to be 587 ± 9.5 µM.
As for `N[C@@H](Cc1c[nH]c2ccccc12)C(=O)O` [L-Trp], under “0.03125-1 mM substrate, 2 min”, the Km was 471 ± 25.9 µM.
